# According to the supplement of paper PMC10307832:
# Tests used:
# Test in all cases: relative viability (nuclei count vs DMSO), 5 days (fraction); higher = more cells survive
# [1] = compound: Cn1cc(-c2cnn3c(N)c(Br)c([C@@H]4CCCNC4)nc23)cn1 + CS(=O)(=O)CCNCc1ccc(-c2ccc3ncnc(Nc4ccc(OCc5cccc(F)c5)c(Cl)c4)c3c2)o1 [Lapatinib] (partner 2 µM)
# In short: (§1)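 Relative viability divides the nuclei count in treated wells by that in vehicle wells. Lung cancer cell lines were seeded in 1536-well plates, dosed by pin tool the next day, and fixed and stained after 5 days in one step with final 0.05% Triton X-100, 1% formaldehyde and 1 ug/ml Hoechst. Dosing was a single drug or a fixed anchor-drug dose plus five library-drug doses (not always all listed) in √10 steps, and values are medians of duplicate plates imaged at 4×.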
# [2] = compound: Cn1cc(-c2cnn3c(N)c(Br)c([C@@H]4CCCNC4)nc23)cn1 + C[C@@H](Oc1cc(-c2cnn(C3CCNCC3)c2)cnc1N)c1c(Cl)ccc(F)c1Cl [Crizotinib] (partner 1 µM)
# In short: as §1
# [3] = compound: Cn1cc(-c2cnn3c(N)c(Br)c([C@@H]4CCCNC4)nc23)cn1 + Cc1nc(Nc2ncc(C(=O)Nc3c(C)cccc3Cl)s2)cc(N2CCN(CCO)CC2)n1 [Dasatinib] (partner 0.075 µM)
# In short: as §1
# [4] = compound: Cn1cc(-c2cnn3c(N)c(Br)c([C@@H]4CCCNC4)nc23)cn1 + Nc1nc2[nH]cc(CCc3ccc(C(=O)N[C@@H](CCC(=O)O)C(=O)O)cc3)c2c(=O)[nH]1 [Pemetrexed] (partner 0.2 µM)
# In short: as §1
Cell Line,relative viability ([1]; first compound 0.05 µM),relative viability ([1]; first compound 0.1581 µM),relative viability ([1]; first compound 0.5 µM),relative viability ([1]; first compound 1.581 µM),relative viability ([1]; first compound 5 µM),relative viability ([2]; first compound 0.05 µM),relative viability ([2]; first compound 0.1581 µM),relative viability ([2]; first compound 0.5 µM),relative viability ([2]; first compound 1.581 µM),relative viability ([2]; first compound 5 µM),relative viability ([3]; first compound 0.05 µM),relative viability ([3]; first compound 0.1581 µM),relative viability ([3]; first compound 0.5 µM),relative viability ([3]; first compound 1.581 µM),relative viability ([3]; first compound 5 µM),relative viability ([4]; first compound 0.05 µM),relative viability ([4]; first compound 0.1581 µM),relative viability ([4]; first compound 0.5 µM),relative viability ([4]; first compound 1.581 µM),relative viability ([4]; first compound 5 µM)
EMC-BAC-2,0.843,0.987,0.961,0.852,0.889,0.73,0.769,0.715,0.646,0.703,0.315,0.328,0.333,0.342,0.25,0.478,0.386,0.399,0.433,0.462
NCI-H23,1.08,1.23,1.02,0.825,0.267,0.444,0.534,0.437,0.322,0.183,0.851,0.999,0.687,0.585,0.18,0.582,0.539,0.504,0.275,0.19
RERF-LC-KJ,0.917,0.966,0.862,0.828,0.771,0.828,0.958,0.775,0.788,0.8,0.936,0.806,0.813,0.572,0.618,0.459,0.476,0.477,0.422,0.478
NCI-H358,0.465,0.477,0.446,0.46,0.378,0.586,0.575,0.375,0.655,0.339,0.131,0.155,0.156,0.167,0.148,0.177,0.164,0.162,0.166,0.129
LC-2-ad,1.02,1.04,0.923,0.754,0.925,0.503,0.439,0.419,0.447,0.426,0.486,0.544,0.504,0.327,0.458,0.293,0.295,0.265,0.25,0.239
HCC-15,0.952,0.949,0.648,0.811,0.827,0.926,0.98,0.877,0.722,0.652,0.706,0.633,0.511,0.464,0.483,0.206,0.232,0.227,0.226,0.207
NCI-H2405,1.06,1.17,1.01,0.993,0.85,0.884,0.849,0.794,0.765,0.611,0.21,0.458,0.205,0.201,0.203,0.968,1.05,1.05,0.991,0.709
LXF-289,0.922,1.02,0.887,0.904,0.896,0.82,0.929,0.945,0.81,0.807,0.216,0.209,0.181,0.221,0.209,0.985,0.953,0.823,0.779,0.645
